Experimental data published in patent publication US11246929B2, “Combination of a protein kinase inhibitor and an additional chemotherapeutic agent” (Merck Patent GmbH, priority 2016, dated 2022).
Where “and” joins values, the source holds several entries; their conditions need not be identical. Identical values can stand only once. Like-named read-outs stand apart in the source and are kept apart here.

Key:
[1] = tested on: FaDu (H&N, squamous) xenograft; type: in vivo
From the text: The models were chosen from different cancer indications (colon, lung, head and neck, pancreatic), and histological subtypes (adeno, squamous, large cell). […]
The resulting Kaplan-Meier plots were compared by the log-rank test.

NCI-H460 xenograft = type: in vivo
From the text: The NCI-H460 was chosen as a model relatively insensitive to IR treatment.

MO59K (DNA-PK wild type) = test: AlamarBlue viability assay; type: cell-based, human
Experimental: Details of the assay protocol and material utilized are set forth below.
After 24 h incubation at 37° C.
At the end of the compound incubation period 20 μl AlamarBlue reagent was added per well and the 96-well plates were incubated further up to seven hours. Absorption was determined at 540 nm by using Tecan Reader Connect and Magelan 7.
0% effect=cells treated with DMSO; −100% effect=no cells

DNA-PK = DNA-PK (Homo sapiens, UniProt P78527); test: crystallographic and enzyme kinetics studies; type: biochemical
[2] = tested on: human NCI-H526 SCLC xenograft; test: NCI-H526 SCLC xenograft, combination with etoposide/cisplatin; type: in vivo
Experimental: The mice were acclimatized to the housing conditions for 1 week. […] Bedding consisted of aspen chips (E. Becker, Castrop-Rauxel). Room temperature was 24+/−2° C. and relative humidity was 50+/−10% at 15 air changes per hour. Drinking water (provided ad libitum) was supplemented with 1 mg/mL Chlorine and was adjusted to a pH of 6.5 with HCl. Sterile high protein maintenance diet for immunodeficient mice (Ssniff, Soest, product No V1244-72, γ-sterilized) was also provided ad libitum. The light cycle was set at 12 hrs light and 12 hrs darkness. Details of the study protocol are as follows:
Then the cell suspension (100 μL/animal) was subcutaneously inoculated in the right flank of immunodeficient CD1 mice.
Tumor measurements and calculations: When the tumors reached a volume of 96-214 mm^3 the animals were randomized into 7 treatment groups with 10 animals each. Tumor length (L) and width (W) were measured twice weekly by calipers. The tumor volume was calculated using the formula L×W2/2. Data were collected in Study Advantage™ (data collection system).
Treatment: dosing and scheduling per above.
T/C-value: The ability of a treatment to inhibit tumor growth was assessed at the end of each study by calculating the % T/C value according to following formulas: % T/C delta>0 calculation (mean): [(end tumor volume treatment−start tumor volume treatment)/(end tumor volume control−start tumor volume control)]×100] % T/C delta≤0 (regression) calculation (mean): [(end tumor volume treatment−start tumor volume treatment)/start tumor volume treatment]×100
Toxicity: The bodyweight change in % denotes the difference between the weight at start of treatment and the end of treatment. Changes of bodyweight during the treatment course are particularly important as it is considered a measure for presence or absence of treatment-related toxicity. A dosage producing a 20% body weight change (mean of group) or ≥10% drug deaths was considered an excessively toxic dosage. Animal body weights included the tumor weights.
Animals were treated with three 1-week cycles of chemotherapy consisting of Cisplatin (3 mg/kg once weekly) and Etoposide (4 mg/kg for three consecutive days per week).

colon cancer cell lines = test: cells; conditions: read-out: Median etoposide concentration needed to reach GI50
Experimental: (§3) Single agent as well as combination treatment growth inhibition effects were measured by ONCOLEAD.
(§4) Relative area above the dose-response curve (relAOC or AOC) were obtained as the area above the dose-response curve in the dose range between 1E-3M and 1E-10M.

CACO2 = test: cells; conditions: Homo sapiens, Caco-2, read-out: GI50 of etoposide (±Compound 1)
Experimental: (§5) Cell growth and treatment were performed in 96-well microtitre plates CELLSTAR® (Greiner Bio-One, Germany). Cells harvested from exponential phase cultures by trypsinization or by splitting (in the case of cells growing in suspension) were plated in 90 μl of media at optimal seeding densities. The optimal seeding density for each cell line was determined to ensure exponential growth for the duration of the experiment. All cells growing without anticancer agents were sub-confluent by the end of the treatment, as determined by visual inspection.
(§6) 90 μl of cells, after a 48-hour pre-growth period, were treated by mixing with 10 μl of the compound-containing media (resulting in a final DMSO concentration of 0.1%). The cells were allowed to grow at 37° C. for 72 (or 120) hours.
(§7) Cells were fixed to the surface by addition of 10% TCA (for adherent growing cells) or 50% TCA (for semi-adherent growing cell or cells growing in suspension). After an hour of incubation at 4° C. plates were washed twice with 200 μl of deionized water and dried. Cells were then stained with 100 μl of 0.04% w/v SRB. […]
(§8) Using these measurements, cellular responses can be calculated for incomplete inhibition of cell growth (GI), complete inhibition of cell growth (TGI) and net loss of cells (LC) due to compound activity. […] TGI was calculated from Ti=Tz. […] It was calculated as 100×[(Ti−Tz)/Tz]=−50.

SF295 = test: SRB growth inhibition, 93 cell lines panel; conditions: Homo sapiens, SF-295, read-out: GI50 of etoposide (±Compound 1)
Experimental: (§9) Cell growth and treatment were performed in 96-well microtitre plates CELLSTAR® (Greiner Bio-One, Germany). Cells harvested from exponential phase cultures by trypsinization or by splitting (in the case of cells growing in suspension) were plated in 90 μl of media at optimal seeding densities. The optimal seeding density for each cell line was determined to ensure exponential growth for the duration of the experiment. All cells growing without anticancer agents were sub-confluent by the end of the treatment, as determined by visual inspection. […] The cells were allowed to grow at 37° C. for 72 (or 120) hours. […] Cells were fixed to the surface by addition of 10% TCA (for adherent growing cells) or 50% TCA (for semi-adherent growing cell or cells growing in suspension). After an hour of incubation at 4° C. plates were washed twice with 200 μl of deionized water and dried. Cells were then stained with 100 μl of 0.04% w/v SRB. The plates were incubated at room temperature for at least 30 min and washed six times with 1% acetic acid to remove unbound stain. […] Using these measurements, cellular responses can be calculated for incomplete inhibition of cell growth (GI), complete inhibition of cell growth (TGI) and net loss of cells (LC) due to compound activity. […] TGI was calculated from Ti=Tz.

panel of 93 cell lines = test: SRB growth inhibition, 93 cell lines panel (summary); type: cell-based
Experimental: (§1) 90 μl of cells, after a 48-hour pre-growth period, were treated by mixing with 10 μl of the compound-containing media (resulting in a final DMSO concentration of 0.1%).
(§2) This is the drug concentration causing a 50% reduction compared to the net protein increase in control cells during the drug incubation period. In other words, G150 is IC50 corrected for time zero. […] TGI was calculated from Ti=Tz. […] It was calculated as 100×[(Ti−Tz)/Tz]=−50.
The * or ** mark the lowest or highest tested concentrations. […] Both uM and μM stand for micromolar.

SF268 = test: SRB growth inhibition, 93 cell lines panel; conditions: Homo sapiens, SF-268, read-out: GI50 of etoposide (±Compound 1)
Experimental: as §9

MT3 = test: cells; conditions: MT-3, read-out: GI50 of etoposide (±Compound 1)
Experimental: as §1, §2

HEPG2 = test: cells; conditions: Homo sapiens, HepG2, read-out: GI50 of etoposide (±Compound 1)
Experimental: as §1, §2

SKHEP1 = test: cells; conditions: Homo sapiens, SK-HEP1, read-out: GI50 of etoposide (±Compound 1)
Experimental: as §1, §2

PLCPRF5 = test: cells; conditions: Homo sapiens, PLC-PRF-5, read-out: GI50 of etoposide (±Compound 1)
Experimental: as §1, §2

SKNSH = test: SRB growth inhibition, 93 cell lines panel; conditions: Homo sapiens, SK-N-SH, read-out: GI50 of etoposide (±Compound 1)
Experimental: as §9

HELA = test: cells; conditions: Homo sapiens, read-out: GI50 of etoposide (±Compound 1)
Experimental: as §5, §6, §7, §8

[3] = tested on: mesothelioma (pleura) cell lines; test: cells; conditions: read-out: Median etoposide concentration needed to reach GI50
Experimental: as §3, §4

COc1ccc([C@@H](O)c2cc(-c3ncnc4cc(N5CCOCC5)ccc34)c(F)cc2Cl)nn1 [Compound 1, (S)-[2-chloro-4-fluoro-5-(7-morpholin-4-yl-quinazolin-4-yl)-phenyl]-(6-methoxy-pyridazin-3-yl)-methanol]
Enhancement Ratio [combi/IR only] ([1]; IR 10 Gy (5 x 2 Gy) + Compound 1 150 mg/kg po): 2.1 | median time to TV400% Combi ([1]; IR 10 Gy (5 x 2 Gy) + Compound 1 150 mg/kg po 10 min prior to each fraction): 46 days | tumor response ([1]; daily 4 Gy (20 Gy total), 100 mg/kg, 92 day observation period): complete response | Enhancement Ratio [combi/IR only] ([1]; total IR 10 Gy, 25 mg/kg po): 1.4 | median time to TV400% Combi ([1]; total IR 10 Gy, 25 mg/kg po): 29.5 days | Enhancement Ratio [combi/IR only] ([1]; total IR 10 Gy, 100 mg/kg po): 1.9 | median time to TV400% Combi ([1]; total IR 10 Gy, 100 mg/kg po): 40 days | median time to TV400% Combi ([1]; total IR 10 Gy, 300 mg/kg po): >63 days | CR (complete response) ([1]; total IR 10 Gy, 300 mg/kg po, d 63): 60% CR | Enhancement Ratio [combi/IR only] ([1]; total IR 20 Gy, 5 mg/kg po): 0.9 | median time to TV400% Combi ([1]; total IR 20 Gy, 5 mg/kg po): 43 days | Enhancement Ratio [combi/IR only] ([1]; total IR 20 Gy, 10 mg/kg po): 1.13 | median time to TV400% Combi ([1]; total IR 20 Gy, 10 mg/kg po): 56.5 days | median time to TV400% Combi ([1]; total IR 20 Gy, 100 mg/kg po): >94 days | CR (complete response) ([1]; total IR 20 Gy, 100 mg/kg po, d 94): 100% CR | Enhancement Ratio [combi/IR only] ([1]; total IR 30 Gy (6 Gy daily), 10 mg/kg po, 10 mg/kg): 2 and 1.9 | Enhancement Ratio [combi/IR only] ([1]; total IR 30 Gy, 5 mg/kg po): 1.4 | median time to TV400% Combi ([1]; total IR 30 Gy, 5 mg/kg po): 69 days | median time to TV400% Combi ([1]; total IR 30 Gy, 10 mg/kg po): 94 days | tolerability ([1]; total IR 30 Gy, 100 mg/kg po): not tolerated | tumor response (NCI-H460 xenograft; 6 weeks IR (60 Gy total) + Compound 1 25 and 50 mg/kg po): regressed during the treatment and observation period up to approximately day 90 | tumor volume vs starting volume (NCI-H460 xenograft; 6 weeks IR + 50 mg/kg, 42 days of treatment plus 68 days observation): did not exceed their starting volume | tolerability (NCI-H460 xenograft; 6 weeks IR + Compound 1): generally well tolerated | inhibition of viability, combination with etoposide (MO59K (DNA-PK wild type)): enhanced inhibition of viability | potentiation of etoposide, Compound 1 in comparison to VX-984 (MO59K (DNA-PK wild type); compound incubation for 72 h): compares favorably | inhibition of DNA-PK, mode (DNA-PK): potent and selective ATP-competitive inhibitor | efficacy by schedule ([2]; Compound 1 daily throughout the study vs separated from SoC by 7 h or days): better efficacy | body weight change ([2]; SoC combined with Compound 1): additional body weight loss | mean tumor volume ([2]; day 21, Compound 1 50 mg/kg daily + etoposide 4 mg/kg + cisplatin 3 mg/kg, n=10): 50 mm^3 | decrease of mean tumor volume compared to starting volume ([2]; day 21, Compound 1 50 mg/kg daily + etoposide + cisplatin): about 67% | animals showing complete response ([2]; day 28, combination arm): 4/10 | animals with regression ([2]; day 28, combination arm): 1/10 | animals with stable disease ([2]; day 28, combination arm): 3/10 | animals progression free ([2]; day 28, combination arm (Compound 1 + SoC)): 9/10 | antitumor activity ([2]; in combination with Etoposide and Cisplatin): significantly enhanced antitumor activity

COc1cc([C@@H]2c3cc4c(cc3[C@@H](O[C@@H]3O[C@@H]5CO[C@@H](C)O[C@H]5[C@H](O)[C@H]3O)[C@H]3COC(=O)[C@H]23)OCO4)cc(OC)c1O [Etoposide]
GI50 (colon cancer cell lines): 700 nM | GI50 (CACO2): 3650 nM | GI50 (SF295): 1160 nM | GI50 (panel of 93 cell lines; read-out: Average GI50): 1700 nM | GI50 (panel of 93 cell lines; read-out: Median GI50): 900 nM | GI50 (panel of 93 cell lines; read-out: Most resistant cell line (GI50)): > 10000 nM | GI50 (panel of 93 cell lines; read-out: Most sensitive cell line (GI50)): 38 nM | GI50 (SF268): 1970 nM | GI50 (MT3): 609 nM | GI50 (HEPG2): 806 nM | GI50 (SKHEP1): 83 nM | GI50 (PLCPRF5): 6250 nM | GI50 (SKNSH): 265 nM | GI50 (HELA): 2360 nM | GI50 [3]: 1000 nM
